Source: patent US11578140B2, “Immunoassay for mitragynine” (MICROGENICS CORPORATION, priority 2019, dated 2023)

System: anti-mitragynine antibody
Experiment: Cross reactivity of the anti-mitragynine antibody against kratom alkaloids and mitragynine metabolites
Assay type: binding, Balb/c mice
Details: for Cross Reactivity (%): tested concentration (ng/mL): Mitragynine 50, 7-hydroxy mitragynine 35,000-40,000, Paynantheine 25,000-35,000, Speciociliatine 25,000-35,000, 16-carboxy mitragynine 300-360, 9-Hydroxycorynantheidine 3,125-4,000; for cross reactivity (in words): metabolites of mitragynine, antibody derived from the BSA immunogen
Procedure: In a particular embodiment of the invention, the BSA-containing immunogen of Example 4 (Compound 6) was administered to Balb/c mice in a series of injections as is routine in the art. Alternatively, other mammals are suitable for antibody production. Screening of anti-serum samples taken from the immunized mice was performed to assess antibody titer and to evaluate the ability of antibodies in the samples to bind to enzyme-donor conjugate described in Example 6.
In particular, β-galactosidase enzyme donor polypeptide fragment combines with a β-galactosidase enzyme acceptor fragment to form active β-galactosidase enzyme. The active enzyme complex is capable of transforming a substrate into a product that is differentially detectable. Usually, the product is a different color from the substrate and is quantified using spectrophotometric methods. […] Therefore, the enzyme-catalyzed reaction rate is directly proportional to the concentration of target analyte present in the specimen tested. A preferred β-galactosidase enzyme donor is ED28, a polypeptide containing residues 6-45 of β-galactosidase, with cysteines at positions 1 and 46 (relative to the numbering of the original β-galactosidase fragment).
The cross reactivity of the anti-mitragynine antibody derived from the immunogen described above was tested against certain kratom alkaloids and metabolites of mitragynine shown below.

SMILES	Cross Reactivity (%)	cross reactivity (in words)
CC[C@@H]1CN2CC[C@@]3(O)C(=Nc4cccc(OC)c43)[C@@H]2C[C@@H]1/C(=C\OC)C(=O)OC [7-hydroxy mitragynine]	≤0.2%	
CC[C@@H]1CN2CCc3c([nH]c4cccc(O)c34)[C@@H]2C[C@@H]1/C(=C\OC)C(=O)OC [9-Hydroxycorynantheidine, (E)-2-[(25,35,12b5)-3-ethyl-8-hydroxy-1,2,3,4,6,7,12,12b-octahydroindolo [2,3-a]quinozilizin-2-yl]-3-methoxy propenoic acid methyl ester]	1.25-1.6%	low levels of cross reactivity
CC[C@@H]1CN2CCc3c([nH]c4cccc(OC)c34)[C@@H]2C[C@@H]1/C(=C\OC)C(=O)O [16-carboxy mitragynine]	13.9-16.7%	low levels of cross reactivity
CC[C@@H]1CN2CCc3c([nH]c4cccc(OC)c34)[C@@H]2C[C@@H]1/C(=C\OC)C(=O)OC [Mitragynine, methyl (E)-2-[(2S,3S,12bS)-3-ethyl-8-methoxy-1,2,3,4,6,7,12,12b-octahydroindolo[2,3-a]quinolizin-2-yl]-3-methoxyprop-2-enoate]	100%	
C=C[C@H]1CN2CCc3c([nH]c4cccc(OC)c34)[C@@H]2C[C@@H]1/C(=C\OC)C(=O)OC [Paynantheine]	≤0.2%	
CC[C@@H]1CN2CCc3c([nH]c4cccc(OC)c34)[C@H]2C[C@@H]1/C(=C\OC)C(=O)OC [Speciociliatine]	≤0.2%	
